Reference: patent US9833446B2, “Hedgehog pathway inhibition for cartilage tumor and metachondromatosis treatment” (Rhode Island Hospital, priority 2012, dated 2017)
“Also recorded” adds a separate entry of the source.

Tests used:
[1] = tested on: ATDC5 cells; test: q-PCR of Ihh and Pthrp expression in inhibitor-treated parental ATDC5 cells; format: cell-based, murine; conditions: PD173074 10 nM, UO126 1 μM, n=3, p<0.05
Excerpt: (§1) FIG. 4a, Left panel, is a bar graph of qPCR results showing increased Col2α1, Col10α1, Ihh, and Pthrp expression in laser-captured cartilaginous cells from exostoses, compared with normal articular cartilage cells (n=4, *p<0.05, Student t test). FIG. 4a, Right panel, is a series of photomicrographs showing immunostaining of paraffin sections from Perichondrial Groove of Ranvier region of Ctsk-KO and Control mice. Note the decreased number of p-Erk+ cells, but increased Ihh expression in Ctsk-KO, compared with Control, mice. FIG. 4b, Left Panel, is a photograph of an immunoblot showing Shp2 levels in ATDC5 chondroprogenitor cell lines stably expressing shRNAs against murine Ptpn11 (ATDC5-KD1, ATDC5-KD2, respectively) or a scrambled control hairpin. […] FIG. 4c is a bar graph showing that FGFR (PD173074, 10 nM) or MEK (UO126, 1 μM) inhibitor treatment of parental ATDC5 cells enhances Ihh and Pthrp expression, as shown by q-PCR (n=3, *p<0.05, Student t test). […] Images of representative posterior paws (i-iv) and knese (v-vii) taken pre-treatment (i, iii, v, vii) and post-treatment with vehicle (ii, vi) or Smoothened inhibitor (SMOi) (iv, viii) for 4 weeks. Note continued development of exostoses and endochromas in Vehicle-treated mice, and their amelioration in SMOi-treated group (arrows). Also, see FIGS. 7a,b and 8a,b.
Parental ATDC5 cells were purchased from the ATCC and cultured in complete DMEM/F12 medium (1:1) (Invitrogen) as described46. ATDC5 cells stably expressing short hairpin RNAs against murine Shp2 • (oligoA:5′[…] TCTGAATCTT TTTGGAAA (SEQ ID NO:1)); • Oligo B: 5-[…] (SEQ ID NO:2)) or its scrambled control were established by using pSuper(retro)/puro retroviral vector (Oligoengine, Inc) and pEcopac.
(§2) Quantitative RT-PCR. RNA was extracted from cultured cells or cartilage lesions captured by laser dissection by using the RNeasy kit (Qiagen). cDNA was synthesized using iScript™cDNA Synthesis Kit (Bio-Rad) and q-PCR was performed by using the RT2SYBR®Green qPCR kit. All values were normalized to Gapdh levels, and qPCR data are expressed as fold-increases compared with controls.
CCPs are rare, rendering detailed biochemical analyses of these cells unfeasible. We therefore tested the effects of Shp2 depletion in ATDC5 chondroid cells by stably expressing either of two shRNAs directed against murine Ptpn11. As in Ctsk-KO mice (FIG. 4a), Fgf18-evoked Erk activation was decreased, while Ihh and Pthrp levels were increased, in Shp2 deficient-ATDC5 cells, compared with cells expressing an shRNA control (FIG. 4b). Conversely, FGFR (PD173074) or MEK (UO126) inhibitor treatment of randomly growing, parental ATDC5 cells led to enhanced Ihh and Pthrp expression (FIG. 4c).

[2] = tested on: Ctsk-KO mice; test: Smoothened inhibitor treatment of Ctsk-KO mice (metachondromatosis model), X-ray, μ-CT and histology; format: in vivo; conditions: for number of exostoses / size of exostoses: vs vehicle; for cartilage tumor condition / disease process in Shp2 mutant mice: systemic administration
Excerpt: as §1
All animals used for these experiments are shown. […] SMOi was administered by oral gavage to Ctsk-KO mice beginning at post-natal week 5 for four weeks, and mice were euthanized at week 9.
Microcomputed Tomography (μ-CT) and x-Ray Analysis. X-ray images of the entire skeleton, knees, metatarsals and phalanges were obtained immediately after euthanasia by using a Faxitron X-ray system (Wheeling, Ill.). After fixation in 4% PFA, μ-CT images of skeletal tissues were scanned with the desktop microcomputer graphic imaging system (μ-CT40, Scanco Medical AG, CH). The number and size of exostoses were measured visually based on x-ray images.
Ihh signaling leads to Pthrp production. […] If so, then blocking or attenuating Ihh signaling might slow and/or prevent MC development. To test this hypothesis, Control (wild type) and Ctsk-KO mice (5/group) were treated with the Smoothened inhibitor PF-04449913 (100 μg/g body weight) or vehicle control (0.5% methylcellulose) by daily gavage, beginning at 5 weeks of age and continuing for the succeeding 4 weeks. The skeletal phenotype was examined by X-ray, μ-CT, and histological analysis at the end of experiment.

[3] = tested on: Hedgehog pathway; test: qPCR of epiphyseal cartilage after oral Smoothened inhibitor in wild type mice; format: in vivo; conditions: oral administration for 1 week, n=3, p<0.05
Excerpt: FIG. 8a is a series of charts showing number and size of exostoses in Ctsk-KO mice post-treatment (n=5) with vehicle or Smoothened inhibitor (SMOi). […] FIG. 8b is a bar graph of qPCR results showing that oral administration of the Smoothened inhibitor SMOi to wild type mice for 1 week blunts the expression of Col2α1, Col10α1, Mmp13 and Gli1 in epiphyseal cartilage (n=3, *p<0.05, student t test).
as §2

[4] = Ctsk-KO mice, 100 μg/g body weight, daily gavage, 4 weeks
[5] = Ctsk-KO mice, 100 μg/g body weight, daily gavage, 4 weeks, listed as SMOi

Compound: CCN(CC)CCCCNc1ncc2cc(-c3cc(OC)cc(OC)c3)c(NC(=O)NC(C)(C)C)nc2n1 [PD173074]
- Ihh expression (q-PCR) [1]: enhanced
- Pthrp expression (q-PCR) [1]: enhanced

Compound: CN1CC[C@@H](NC(=O)Nc2ccc(C#N)cc2)C[C@@H]1c1nc2ccccc2[nH]1 [PF-04449913]
- function of multiple joints [2, 4]: improved
- tumor formation (Faxitron radiographs) ([2]; Ctsk-KO mice, 100 μg/g body weight, daily gavage, 4 weeks from week 5, vs vehicle (0.5% methylcellulose)): ameliorates tumor formation
- number of exostoses [2, 4]: significantly reduced
- size of exostoses [2, 4]: significantly reduced
- number of exostoses [2, 5]: reduction of number; also recorded: decrease in average number of exostoses
- size of exostoses [2, 5]: reduction of number and size
- cartilage tumor condition / disease process in Shp2 mutant mice [2]: reduces the cartilage tumor condition
- cartilage tumor condition / disease process in Shp2 mutant mice ([2]; listed as PF-0444993): can stop or slow down the disease process
- expression of Col2α1 in epiphyseal cartilage (qPCR) [3]: blunts
- expression of Col10α1 in epiphyseal cartilage (qPCR) [3]: blunts
- expression of Gli1 in epiphyseal cartilage (qPCR) [3]: blunts
- expression of Mmp13 in epiphyseal cartilage (qPCR) [3]: blunts

Compound: N#CC(=C(/N)Sc1ccccc1N)/C(C#N)=C(/N)Sc1ccccc1N [UO126]
- Ihh expression (q-PCR) [1]: enhanced
- Pthrp expression (q-PCR) [1]: enhanced
